# Earlier results as cited in US20070066591A1, “Compounds, compositions, and methods” (priority 2003, published 2007).
# System: A549 cells
# Conditions: data provided by National Cancer Institute, Developmental Therapeutic Program
row,SMILES,GI50 [nM]
1,O=c1[nH]cc(F)c(=O)[nH]1 [5-fluorouracil],1000
2,COc1cccc2c1C(=O)c1c(O)c3c(c(O)c1C2=O)C[C@@](O)(C(=O)CO)C[C@@H]3O[C@H]1C[C@H](N)[C@H](O)[C@H](C)O1 [doxorubicin],63
3,NC(=O)NO [hydroxyurea],500000
4,CC(=O)O[C@H]1C(=O)[C@@]2(C)[C@H]([C@H](OC(=O)c3ccccc3)[C@]3(O)C[C@H](OC(=O)[C@H](O)[C@@H](NC(=O)c4ccccc4)c4ccccc4)C(C)=C1C3(C)C)[C@]1(OC(C)=O)CO[C@@H]1C[C@@H]2O [paclitaxel],4
